From patent US20170050957A1, “4-AMINO-6-(HETEROCYCLIC)PICOLINATES AND 6-AMINO-2-(HETEROCYCLIC)PYRIMIDINE-4-CARBOXYLATES AND THEIR USE AS HERBICIDES” (Dow AgroSciences LLC, priority 2013, published 2017)
Where two headings read alike, the source gives them in different places.

Experiments:
[1] = system: Key Broadleaf Weed and Crop Species; experiment: Post-emergent Test II herbicidal activity (Table 15); assay type: in vivo; conditions: post-emergence, 336 h, 14 d; for pest or weed control at 35 g/ha: 35 g ai/ha; for pest or weed control at 70 g/ha: 70 g ai/ha; for pest or weed control at 140 g/ha: 140 g ai/ha
How it was run: (§1)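 Post-emergence spray; seedlings 7-21 d old, 1st-2nd true leaf; 187 L/ha; serial rates 1×-1/16×; solvent blank controls; subirrigated; visual % injury at 14 d.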

[2] = system: Key Grass and Sedge Weeds as well as Grass Crops; experiment: Post-emergent Test II herbicidal activity (Table 16); assay type: in vivo; conditions: post-emergence, 336 h, 14 d; for pest or weed control at 35 g/ha: 35 g ai/ha; for pest or weed control at 70 g/ha: 70 g ai/ha; for pest or weed control at 140 g/ha: 140 g ai/ha
How it was run: as §1

[3] = Abutilon theophrasti, velvetleaf (Abutilon theophrasti), read-out: Visual Growth Reduction (%) 14 Days After Application, ABUTH
[4] = Amaranthus retroflexus, redroot pigweed (Amaranthus retroflexus), read-out: Visual Growth Reduction (%) 14 Days After Application, AMARE
[5] = Brassica napus, oilseed rape, canola (Brassica napus), read-out: Visual Growth Reduction (%) 14 Days After Application, BRSNN
[6] = Chenopodium album, lambsquarters (Chenopodium album), read-out: Visual Growth Reduction (%) 14 Days After Application, CHEAL
[7] = Euphorbia heterophylla, wild poinsettia (Euphorbia heterophylla), read-out: Visual Growth Reduction (%) 14 Days After Application, EPHHL
[8] = Helianthus annuus, sunflower (Helianthus annuus), read-out: Visual Growth Reduction (%) 14 Days After Application, HELAN
[9] = Cyperus esculentus, yellow nutsedge (Cyperus esculentus), read-out: Visual Growth Reduction (%) 14 Days After Application, CYPES
[10] = Echinochloa crus-galli, barnyardgrass (Echinochloa crus-galli), read-out: Visual Growth Reduction (%) 14 Days After Application, ECHCG
[11] = Oryza sativa, rice (Oryza sativa), read-out: Visual Growth Reduction (%) 14 Days After Application, ORYSA
[12] = Setaria faberi, giant foxtail (Setaria faberi), read-out: Visual Growth Reduction (%) 14 Days After Application, SETFA
[13] = Triticum aestivum, wheat, spring (Triticum aestivum), read-out: Visual Growth Reduction (%) 14 Days After Application, TRZAS
[14] = Zea mays, maize, corn (Zea mays), read-out: Visual Growth Reduction (%) 14 Days After Application, ZEAMX

SMILES: COC(=O)c1nc(-c2cccc3occc23)c(F)c(N)c1Cl [Compound 2.15]
- pest or weed control at 35 g/ha [1, 3]: 45 to 59%
- pest or weed control at 70 g/ha [1, 3]: 75 to 84%
- pest or weed control at 140 g/ha [1, 3]: 95 to 100%
- pest or weed control at 35 g/ha [1, 4]: 95 to 100%
- pest or weed control at 70 g/ha [1, 4]: 95 to 100%
- pest or weed control at 140 g/ha [1, 4]: 95 to 100%
- pest or weed control at 35 g/ha [1, 5]: 45 to 59%
- pest or weed control at 70 g/ha [1, 5]: 75 to 84%
- pest or weed control at 140 g/ha [1, 5]: 85 to 94%
- pest or weed control at 35 g/ha [1, 6]: 95 to 100%
- pest or weed control at 70 g/ha [1, 6]: 95 to 100%
- pest or weed control at 140 g/ha [1, 6]: 95 to 100%
- pest or weed control at 35 g/ha [1, 7]: 0 to 29%
- pest or weed control at 70 g/ha [1, 7]: 0 to 29%
- pest or weed control at 140 g/ha [1, 7]: 0 to 29%
- pest or weed control at 35 g/ha [1, 8]: 45 to 59%
- pest or weed control at 70 g/ha [1, 8]: 75 to 84%
- pest or weed control at 140 g/ha [1, 8]: 75 to 84%
- pest or weed control at 35 g/ha [2, 9]: 0 to 29%
- pest or weed control at 70 g/ha [2, 9]: 0 to 29%
- pest or weed control at 140 g/ha [2, 9]: 0 to 29%
- pest or weed control at 35 g/ha [2, 10]: 0 to 29%
- pest or weed control at 70 g/ha [2, 10]: 45 to 59%
- pest or weed control at 140 g/ha [2, 10]: 75 to 84%
- pest or weed control at 35 g/ha [2, 11]: 0 to 29%
- pest or weed control at 70 g/ha [2, 11]: 0 to 29%
- pest or weed control at 140 g/ha [2, 11]: 0 to 29%
- pest or weed control at 35 g/ha [2, 12]: 0 to 29%
- pest or weed control at 70 g/ha [2, 12]: 0 to 29%
- pest or weed control at 140 g/ha [2, 12]: 0 to 29%
- pest or weed control at 35 g/ha [2, 13]: 0 to 29%
- pest or weed control at 70 g/ha [2, 13]: 0 to 29%
- pest or weed control at 140 g/ha [2, 13]: 0 to 29%
- pest or weed control at 35 g/ha [2, 14]: 95 to 100%
- pest or weed control at 70 g/ha [2, 14]: 95 to 100%
- pest or weed control at 140 g/ha [2, 14]: 95 to 100%
- melting point: 100 to 103 °C

SMILES: COC(=O)c1nc(-c2ccc(Cl)c3occc23)c(F)c(N)c1Cl [Compound 2.16, Methyl 4-amino-3-chloro-6-(7-chlorobenzofuran-4-yl)-5-fluoropicolinate]
- pest or weed control at 35 g/ha [1, 3]: 85 to 94%
- pest or weed control at 70 g/ha [1, 3]: 95 to 100%
- pest or weed control at 140 g/ha [1, 3]: 95 to 100%
- pest or weed control at 35 g/ha [1, 4]: 95 to 100%
- pest or weed control at 70 g/ha [1, 4]: 95 to 100%
- pest or weed control at 140 g/ha [1, 4]: 95 to 100%
- pest or weed control at 35 g/ha [1, 5]: 45 to 59%
- pest or weed control at 70 g/ha [1, 5]: 60 to 74%
- pest or weed control at 140 g/ha [1, 5]: 60 to 74%
- pest or weed control at 35 g/ha [1, 6]: 95 to 100%
- pest or weed control at 70 g/ha [1, 6]: 95 to 100%
- pest or weed control at 140 g/ha [1, 6]: 95 to 100%
- pest or weed control at 35 g/ha [1, 7]: 0 to 29%
- pest or weed control at 70 g/ha [1, 7]: 0 to 29%
- pest or weed control at 140 g/ha [1, 7]: 0 to 29%
- pest or weed control at 35 g/ha [1, 8]: 95 to 100%
- pest or weed control at 70 g/ha [1, 8]: 95 to 100%
- pest or weed control at 140 g/ha [1, 8]: 95 to 100%
- pest or weed control at 35 g/ha [2, 9]: 0 to 29%
- pest or weed control at 70 g/ha [2, 9]: 0 to 29%
- pest or weed control at 140 g/ha [2, 9]: 0 to 29%
- pest or weed control at 35 g/ha [2, 10]: 0 to 29%
- pest or weed control at 70 g/ha [2, 10]: 0 to 29%
- pest or weed control at 140 g/ha [2, 10]: 0 to 29%
- pest or weed control at 35 g/ha [2, 11]: 0 to 29%
- pest or weed control at 70 g/ha [2, 11]: 0 to 29%
- pest or weed control at 140 g/ha [2, 11]: 0 to 29%
- pest or weed control at 35 g/ha [2, 12]: 0 to 29%
- pest or weed control at 70 g/ha [2, 12]: 0 to 29%
- pest or weed control at 140 g/ha [2, 12]: 0 to 29%
- pest or weed control at 35 g/ha [2, 13]: 0 to 29%
- pest or weed control at 70 g/ha [2, 13]: 0 to 29%
- pest or weed control at 140 g/ha [2, 13]: 0 to 29%
- pest or weed control at 35 g/ha [2, 14]: 45 to 59%
- pest or weed control at 70 g/ha [2, 14]: 95 to 100%
- pest or weed control at 140 g/ha [2, 14]: 95 to 100%
- melting point: 184 to 186 °C
